The values that follow come from ChEMBL document CHEMBL2177036, “Design and validation of bicyclic iminopyrimidinones as beta amyloid cleaving enzyme-1 (BACE1) inhibitors: conformational constraint to favor a bioactive conformation” (J Med Chem, 2012).

Series [1] is described as follows: Drug uptake in rat brain at 10 mg/kg, po at 6 hrs. It is filed as ADME, organism-based. Set-up: dose 10 mg/kg, route oral. As to conditions: read-out: Drug uptake.
A further series deals with Brain. Kind of series: Free drug concentration in rat brain at 10 mg/kg, po at 6 hrs. The series is classed as ADME, organism-based. More on the design: dose 10 mg/kg, route oral. As to conditions: in vivo.
The nature of series [2]: AUC (0 to 6 hrs) in rat at 10 mg/kg po. Set-up: time < 6 hr, dose 10 mg/kg, route oral. The series is classed as ADME, organism-based. The following applies: plasma.
The nature of series [3]: Ratio of drug uptake in brain to plasma in rat at 10 mg/kg, po at 6 hrs. Set-up: dose 10 mg/kg, route oral. The series is classed as ADME, organism-based. The following applies: read-out: BPR.
The nature of series [4]: Cmax in rat at 10 mg/kg, po at 1 hr. It is filed as ADME, organism-based. Set-up: dose 10 mg/kg, route oral. The following applies: in vivo.
A short description of series [5]: Plasma concentration in rat at 10 mg/kg, po at 6 hrs. The series is classed as ADME, organism-based. More on the design: dose 10 mg/kg, route oral.
Series [6] in a line: Apparent permeability across human Caco2 cells. It is filed as ADME, cell-based. The following applies: Caco-2. (In general: Caco-2 cells form a polarised layer with tight junctions and transporters.)
A short description of series [7]: Cmax in rat at 10 mg/kg, po. It is filed as ADME, organism-based. More on the design: dose 10 mg/kg, route oral. As to conditions: in vivo.
Series [8] in a line: AUC (0 to 24 hrs) in rat at 10 mg/kg po. It is filed as ADME, organism-based. More on the design: time < 24 hr, dose 10 mg/kg, route oral. The following applies: plasma.
Series [9] in a line: Intrinsic clearance in human hepatocytes assessed per 10^6 cells. It is filed as ADME, cell-based, Hepatocyte. As to conditions: read-out: CLH.
A short description of series [10]: Oral bioavailability in rat at 10 mg/kg. It is filed as ADME, organism-based. The following applies: in vivo.
The nature of series [11]: Intrinsic clearance in cynomolgus monkey hepatocytes assessed per 10^6 cells. It is filed as ADME, cell-based, Macaca fascicularis, Hepatocyte. The following applies: read-out: CLH.
The nature of series [12]: Intrinsic clearance in rat hepatocytes assessed per 10^6 cells. The series is classed as ADME, cell-based, Hepatocyte. The following applies: read-out: CLH.
Series [13] in a line: Clearance in rat hepatocytes assessed per 10^6 cells. It is filed as ADME, cell-based, Hepatocyte. The following applies: read-out: CLH.

As to `CN1C(=N)N[C@@]2(c3cc(-c4cccc(C#N)c4)cs3)CN(c3ncc(Cl)cn3)C[C@H]2C1=O`, the concentration at 6 h in [1] came to 965 nM. Further, the “Drug uptake(free)” value with Brain was determined as 4 nM. Further, the AUC(0-t) (as a rule, exposure summed from dosing to a finite time, without extrapolation to infinity) at 6 h in [2] was 90 µM·h. The Kp at 6 h in series [3] is 0.1.
In [2], `CC#Cc1cncc(-c2csc([C@]34CN(C(=O)c5cccc(F)c5)C[C@H]3C(=O)N(C)C(N)=N4)c2)c1` showed an AUC(0-t) at 6 h of 0.3 µM·h.
In turn, `CC#Cc1cncc(-c2csc([C@]34CN(c5cccc(OC(C)C)c5)C[C@H]3C(=O)N(C)C(N)=N4)c2)c1` came in with an AUC(0-t) at 6 h in series [2] of 3.7 µM·h.
As to `Cc1cnc(N2C[C@H]3C(=O)N(C)C(=N)N[C@@]3(c3cc(-c4cccc(C#N)c4)cs3)C2)nc1`, in series [1], the concentration at 6 h is 232 nM. This compound gave an area under the curve AUC(0-t) at 6 h in series [2] of 111 µM·h. Further, the Kp at 6 h in series [3] is less than 0.1.
Consider `CN1C(=O)[C@@H]2CN(C(=O)c3ccccc3)C[C@]2(c2cc(-c3cccc(C#N)c3)cs2)N=C1N`, for which, in series [2], the area under the curve AUC(0-t) at 6 h worked out at 0.024 µM·h.
On to `CN1C(=O)[C@@H]2CN(c3ncccn3)C[C@]2(c2cc(-c3cccc(C#N)c3)cs2)N=C1N`, for which the concentration at 6 h is 58 nM in series [1] and 60 nM in [5]. Besides, the highest concentration (Cmax) (usually the peak of the concentration-time curve) in series [4] is 1000 nM. Moreover, in the series on Brain, the “Drug uptake(free)” value is recorded as 1 nM. Moreover, the AUC(0-t) at 6 h in series [2] is 2 µM·h. Besides, the Kp at 6 h in series [3] is 1.
As for `CN1C(=N)N[C@@]2(c3cc(-c4cccc(C#N)c4)cs3)CN(c3ncc(F)cn3)C[C@H]2C1=O`, the concentration at 6 h in series [1] was 463 nM. In [6], the Papp (commonly the rate of passage across a membrane or cell layer, normalised by area and donor concentration) turned out to be 15.1 ×10⁻⁶ cm/s. This compound also registered a Cmax in series [7] of 6100 nM. Besides, the “Drug uptake(free)” value in the series with Brain worked out at 11 nM. In addition, the AUC(0-t) at 24 h in series [8] was 31 µM·h. Also, the area under the curve AUC(0-t) at 6 h in [2] came out at 31 µM·h. For the same compound, the Kp at 6 h in series [3] is 0.1. In addition, the figures for the hepatocyte CLint in [9], in series [11] and in series [12] were 2 µL/min/1e6 cells, 5.7 µL/min/1e6 cells and 13.5 µL/min/1e6 cells, respectively. The bioavailability (in general, the share of a dose that reaches the circulation, judged against a reference dose that is usually intravenous) in series [10] worked out at 97%.
As for `CN1C(=N)N[C@@]2(c3cc(-c4ccc(F)c(C#N)c4)cs3)CN(C(=O)c3cccc(F)c3)C[C@H]2C1=O`, in series [13], the hepatocyte CLint stood at 46 µL/min/1e6 cells. In series [2], this compound returned an area under the curve AUC(0-t) at 6 h of 0.3 µM·h.
